Source: PubChem BioAssay AID1259411 (Chemical Carcinogenesis Research Information System (CCRIS), 2018)
Active and inactive are the calls of the source. The rule behind the calls is not given here.

Tested on: rodent carcinogenicity bioassays, tumor incidence
Assay: CCRIS carcinogenicity studies
Procedure, shortened: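 Archive of carcinogenicity, mutagenicity, tumor promotion and tumor inhibition results drawn from journals, NCI reports and other sources, expert-reviewed; covers 1985-2011 and is no longer updated.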

Measured: carcinogen call

CCOC(N)=O
active: Species: HAMSTER, Route: DERMAL, Tumor Site: Type of Lesion: INTEGUMENTARY SYSTEM (SKIN), MAMMARY GLAND active; positive | Species: HAMSTER, Route: INTRAPERITONEAL, Tumor Site: Type of Lesion: INTEGUMENTARY SYSTEM (SKIN) active; positive | Species: HAMSTER, Route: ORAL, Tumor Site: Type of Lesion: FORESTOMACH, INTEGUMENTARY SYSTEM (SKIN) active; positive | Species: HAMSTER, Route: SUBCUTANEOUS, Tumor Site: Type of Lesion: ADRENAL GLAND, FORESTOMACH, INTESTINES, INTEGUMENTARY SYSTEM (SKIN), Tumor Site: Type of Lesion: ADRENAL GLAND, FORESTOMACH, INTESTINES, INTEGUMENTARY SYSTEM (SKIN) active; positive | Species: MOUSE, Route: INHALATION, Tumor Site: Type of Lesion: LUNG active; positive | Species: MOUSE, Route: INTRAPERITONEAL, Tumor Site: Type of Lesion: HEMATOPOIETIC SYSTEM (LEUKEMIA), LYMPHATIC SYSTEM: LYMPHOMA, LUNG, LIVER, HARDERIAN GLAND, OVARIES, Tumor Site: Type of Lesion: HEMATOPOIETIC SYSTEM (LEUKEMIA), LYMPHATIC SYSTEM: LYMPHOMA, LUNG, LIVER, HARDERIAN GLAND, OVARIES active; positive | Species: MOUSE, Route: INTRAPERITONEAL, Tumor Site: Type of Lesion: LUNG, LIVER active; positive | Species: MOUSE, Route: ORAL, Tumor Site: Type of Lesion: HEMATOPOIETIC SYSTEM (LEUKEMIA): LYMPHOCYTIC LEUKEMIA, LYMPHATIC SYSTEM: LYMPHOSARCOMA, MAMMARY GLAND, LUNG, LIVER, THYM, Tumor Site: Type of Lesion: HEMATOPOIETIC SYSTEM (LEUKEMIA): LYMPHOCYTIC LEUKEMIA, LYMPHATIC SYSTEM: LYMPHOSARCOMA, MAMMARY GLAND, LUNG, LIVER, THYM active; positive | Species: MOUSE, Route: SUBCUTANEOUS, Tumor Site: Type of Lesion: HARDERIAN GLAND, HEMATOPOIETIC SYSTEM (LEUKEMIA), LIVER, LUNG, Tumor Site: Type of Lesion: HARDERIAN GLAND, HEMATOPOIETIC SYSTEM (LEUKEMIA), LIVER, LUNG active; positive | Species: MOUSE, Strain/Sex: B6C3F1/FEMALE (48/GROUP), Route: ORAL, Dose: 10, 30, 90 PPM IN DRINKING WATER (STUDY DURATION: 2 YRS), Dose: 10, 30, 90 PPM IN DRINKING WATER (STUDY DURATION: 2 YRS), Tumor Site: Type of Lesion: MAMMARY GLAND: ADENOACANTHOMA, ADENOCARCINOMA, OVARY: GRANULOSA CELL TUMOR (BENIGN OR MALIGNANT), SPLEEN: HEMANGIOSARCOM, Tumor Site: Type of Lesion: MAMMARY GLAND: ADENOACANTHOMA, ADENOCARCINOMA, OVARY: GRANULOSA CELL TUMOR (BENIGN OR MALIGNANT), SPLEEN: HEMANGIOSARCOM active; positive ; marginal but not significant increases of hemangiosarcomas occurred i | Species: MOUSE, Strain/Sex: B6C3F1/MALE (48/GROUP), Route: ORAL, Dose: 10, 30, 90 PPM IN DRINKING WATER (STUDY DURATION: 2 YRS), Dose: 10, 30, 90 PPM IN DRINKING WATER (STUDY DURATION: 2 YRS), Tumor Site: Type of Lesion: HEART: HEMANGIOSARCOMA, FORESTOMACH: SQUAMOUS CELL PAPILLOMA OR CARCINOMA (COMBINED), SKIN: SQUAMOUS CELL PAPILLOMA OR C, Tumor Site: Type of Lesion: HEART: HEMANGIOSARCOMA, FORESTOMACH: SQUAMOUS CELL PAPILLOMA OR CARCINOMA (COMBINED), SKIN: SQUAMOUS CELL PAPILLOMA OR C active; positive | Species: MOUSE, Strain/Sex: B6C3F1/MALE, FEMALE (48/GROUP), Route: ORAL, Dose: 10, 30, 90 PPM IN DRINKING WATER (STUDY DURATION: 2 YRS), Dose: 10, 30, 90 PPM IN DRINKING WATER (STUDY DURATION: 2 YRS), Tumor Site: Type of Lesion: LIVER: HEMANGIOSARCOMA, HEPATOCELLULAR ADENOMA OR CARCINOMA (COMBINED), LUNG: ADENOMA OR CARCINOMA (COMBINED): HARDERIAN active; positive | Species: MOUSE, Strain/Sex: B6C3F1/MALE, Route: INTRAPERITONEAL, Dose: 0, 125 UG/G BW IN 10 µL TRIOCTANOIN ONCE (STUDY DURATION: 9 MO), Tumor Site: Type of Lesion: LIVER: HEPATOMA active; positive | Species: MOUSE, Strain/Sex: B6C3F1/MALE, Route: ORAL, Dose: 0, 0.6, 3, 6, 60, 600 PPM IN DRINKING WATER FOR 70 WK (STUDY DURATION: 70 WK), Dose: 0, 0.6, 3, 6, 60, 600 PPM IN DRINKING WATER FOR 70 WK (STUDY DURATION: 70 WK), Tumor Site: Type of Lesion: LUNG: ALVEOLAR/BRONCHIOLAR CARCINOMA, ALVEOLAR/BRONCHIOLAR ADENOMA, LIVER: ANGIOSARCOMA, HEMANGIOMA active; positive | Species: MOUSE, Strain/Sex: C57BL, Route: INTRAPERITONEAL, Dose: 1.00 MG/G 10 TIMES AT WEEKLY INTERVALS, Tumor Site: Type of Lesion: THYMUS GLAND: LYMPHOSARCOMA, LUNG: ADENOMA active; positive | Species: MOUSE, Strain/Sex: CTM/MALE,FEMALE, Route: ORAL, Dose: 0, 0.4% IN DRINKING WATER, 1 OR 2 10-D TREATMENTS OR 1, 2 OR 3 5-D TREATMENTS WITH 10-D INTERVALS BETWEEN TREATMENTS, Dose: 0, 0.4% IN DRINKING WATER, 1 OR 2 10-D TREATMENTS OR 1, 2 OR 3 5-D TREATMENTS WITH 10-D INTERVALS BETWEEN TREATMENTS, Tumor Site: Type of Lesion: LUNG: ADENOMA, LYMPHOSARCOMA active; positive | Species: MOUSE, Strain/Sex: HR/HR/MALE, FEMALE, Route: DERMAL, Dose: 0, 10, 20, 40% IN 200 µL ACETONE 2/WK FOR STUDY DURATION (STUDY DURATION: 56-60 WK), Dose: 0, 10, 20, 40% IN 200 µL ACETONE 2/WK FOR STUDY DURATION (STUDY DURATION: 56-60 WK), Tumor Site: Type of Lesion: SKIN: CARCINOMA, PAPILLOMA, LUNG: ADENOMA active; positive | Species: MOUSE, Strain/Sex: HR/HR/MALE, FEMALE, Route: DERMAL, Dose: 0, 15, 30, 75% IN PROPYLENE GLYCOL 2/WK FOR STUDY DURATION (STUDY DURATION: 56-60 WK), Dose: 0, 15, 30, 75% IN PROPYLENE GLYCOL 2/WK FOR STUDY DURATION (STUDY DURATION: 56-60 WK), Tumor Site: Type of Lesion: SKIN: CARCINOMA, PAPILLOMA, LUNG: ADENOMA active; positive | Species: MOUSE, Strain/Sex: ICR/FEMALE, Route: INHALATION, Dose: 0, 0.25 UG/ML AIR FOR 0.25 D (TOTAL DOSE 0.25 UG/ML/D) (STUDY DURATION: 5 MO), Tumor Site: Type of Lesion: LUNG: TUMOR, HEMATOPOIETIC SYSTEM: LEUKEMIA active; positive | Species: MOUSE, Strain/Sex: ICR/FEMALE, Route: INHALATION, Dose: 0, 0.25 UG/ML AIR FOR 3 D (TOTAL DOSE 0.75 UG/ML/D) (STUDY DURATION: 5 MO), Tumor Site: Type of Lesion: LUNG: TUMOR, HEMATOPOIETIC SYSTEM: LEUKEMIA active; positive
